Values quoted from earlier work, collected in patent US20060127486A1, “Ceramic structures for prevention of drug diversion” (priority 2004, published 2006).

set-up: reference not given here; details: equianalgesic doses of various opioids, given as an aid to exact dose determination

Compound | equianalgesic dose [mg]
COc1ccc2c3c1O[C@H]1[C@@H](O)C=C[C@H]4[C@@H](C2)N(C)CC[C@@]341 [codeine] | 90.0
COc1ccc2c3c1O[C@H]1C(=O)CC[C@H]4[C@@H](C2)N(C)CC[C@]314 [hydrocodone] | 15.0
CN1CC[C@]23CCCC[C@H]2[C@H]1Cc1ccc(O)cc13 [levorphanol] | 1.8
CCC(=O)C(CC(C)N(C)C)(c1ccccc1)c1ccccc1 (stereo not shown) [methadone] | 9.0
COc1ccc2c3c1O[C@H]1C(=O)CC[C@@]4(O)[C@@H](C2)N(C)CC[C@]314 [oxycodone] | 13.5

same assay, conditions: in vivo

Compound | equianalgesic dose [mg]
CCOC(=O)C1(c2ccccc2)CCN(C)CC1 [meperidine] | 135.0
CN1CC[C@]23c4c5ccc(O)c4O[C@H]2[C@@H](O)C=C[C@H]3[C@H]1C5 [morphine] | 27.0
